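These data come from cells grown in 96-well plates and exposed to compound for 48 hours at five concentrations. TGI: total growth inhibition.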
Assays:
Experiment in all cases: NCI tumour cell line growth inhibition, 48 h
SR leukemia = system: SR leukemia
SN12C renal = system: SN12C renal
HS 578T breast = system: HS 578T breast
A549 NSCLC = system: A549 NSCLC
U251 CNS = system: U251 CNS
NCI-H23 lung = system: NCI-H23 lung
T-47D breast = system: T-47D breast
BT-549 breast = system: BT-549 breast
HCC-2998 colon = system: HCC-2998 colon
DU-145 prostate = system: DU-145 prostate
KM12 colon = system: KM12 colon
SK-MEL-5 melanoma = system: SK-MEL-5 melanoma
NCI-H226 lung = system: NCI-H226 lung
MDA-N = system: MDA-N
NCI-H522 lung = system: NCI-H522 lung
EKVX NSCLC = system: EKVX NSCLC
SF-268 CNS = system: SF-268 CNS
PC-3 prostate = system: PC-3 prostate
COLO 205 colon = system: COLO 205 colon
SW-620 colon = system: SW-620 colon
SK-OV-3 ovarian = system: SK-OV-3 ovarian
786-0 renal = system: 786-0 renal
SNB-19 CNS = system: SNB-19 CNS
TK-10 renal = system: TK-10 renal
MOLT-4 leukemia = system: MOLT-4 leukemia
CCRF-CEM leukemia = system: CCRF-CEM leukemia
OVCAR-8 ovarian = system: OVCAR-8 ovarian
HL-60(TB) leukemia = system: HL-60(TB) leukemia
UACC-257 melanoma = system: UACC-257 melanoma
MDA-MB-435 = system: MDA-MB-435
LOX IMVI melanoma = system: LOX IMVI melanoma
NCI/ADR-RES ovarian = system: NCI/ADR-RES ovarian
UO-31 renal = system: UO-31 renal
HOP-92 NSCLC = system: HOP-92 NSCLC
OVCAR-3 ovarian = system: OVCAR-3 ovarian
CAKI-1 renal = system: CAKI-1 renal
M14 melanoma = system: M14 melanoma
IGROV1 ovarian = system: IGROV1 ovarian
HT29 colon = system: HT29 colon
MCF7 breast = system: MCF7 breast
SNB-75 CNS = system: SNB-75 CNS
ACHN renal = system: ACHN renal
MDA-MB-231 breast = system: MDA-MB-231 breast
SK-MEL-2 melanoma = system: SK-MEL-2 melanoma
SF-539 CNS = system: SF-539 CNS
A498 renal = system: A498 renal
K-562 leukemia = system: K-562 leukemia
SF-295 CNS = system: SF-295 CNS
SK-MEL-28 melanoma = system: SK-MEL-28 melanoma
RPMI-8226 leukemia = system: RPMI-8226 leukemia
HCT-15 colon = system: HCT-15 colon
OVCAR-4 ovarian = system: OVCAR-4 ovarian
HOP-62 NSCLC = system: HOP-62 NSCLC
UACC-62 melanoma = system: UACC-62 melanoma
OVCAR-5 ovarian = system: OVCAR-5 ovarian
MALME-3M melanoma = system: MALME-3M melanoma
NCI-H460 lung = system: NCI-H460 lung
HCT-116 colon = system: HCT-116 colon
RXF 393 renal = system: RXF 393 renal

For COc1ccccc1NC(=S)N/N=C/c1cccc(C)n1, the TGI (SR leukemia) was 10.4 µM, the TGI (SN12C renal) was over 93.8 µM and the TGI (HS 578T breast) was over 100 µM. It also gave a TGI (A549 NSCLC) of 86.9 µM, a TGI (U251 CNS) of over 87.1 µM and a TGI (NCI-H23 lung) of over 100 µM. The TGI (T-47D breast) was over 100 µM, the TGI (BT-549 breast) was over 100 µM and the TGI (HCC-2998 colon) was over 100 µM. The TGI (DU-145 prostate) was over 100 µM, the TGI (KM12 colon) was over 100 µM and the TGI (SK-MEL-5 melanoma) was 47.3 µM. It also gave a TGI (NCI-H226 lung) of 37.3 µM, a TGI (MDA-N) of over 100 µM and a TGI (NCI-H522 lung) of over 54.8 µM. The TGI (EKVX NSCLC) was over 100 µM, the TGI (SF-268 CNS) was over 100 µM and the TGI (PC-3 prostate) was over 100 µM. For the same compound, the TGI (COLO 205 colon) was over 100 µM, the TGI (SW-620 colon) was over 100 µM and the TGI (SK-OV-3 ovarian) was over 44.4 µM. It also gave a TGI (786-0 renal) of 96.9 µM, a TGI (SNB-19 CNS) of over 100 µM and a TGI (TK-10 renal) of over 100 µM. It also gave a TGI (MOLT-4 leukemia) of over 100 µM, a TGI (CCRF-CEM leukemia) of over 100 µM and a TGI (OVCAR-8 ovarian) of over 52.3 µM. The TGI (HL-60(TB) leukemia) was over 29.8 µM, the TGI (UACC-257 melanoma) was over 100 µM and the TGI (MDA-MB-435) was over 100 µM. For the same compound, the TGI (LOX IMVI melanoma) was over 100 µM, the TGI (NCI/ADR-RES ovarian) was over 31.1 µM and the TGI (UO-31 renal) was over 39.1 µM. It also gave a TGI (HOP-92 NSCLC) of over 92.8 µM, a TGI (OVCAR-3 ovarian) of over 100 µM and a TGI (CAKI-1 renal) of 74.7 µM. For the same compound, the TGI (M14 melanoma) was 9.43 µM, the TGI (IGROV1 ovarian) was over 95.8 µM and the TGI (HT29 colon) was over 100 µM. It also gave a TGI (MCF7 breast) of over 100 µM, a TGI (SNB-75 CNS) of 53.5 µM and a TGI (ACHN renal) of 25.6 µM. For the same compound, the TGI (MDA-MB-231 breast) was over 100 µM, the TGI (SK-MEL-2 melanoma) was over 100 µM and the TGI (SF-539 CNS) was 28.1 µM. It also gave a TGI (A498 renal) of 69.7 µM, a TGI (K-562 leukemia) of over 100 µM and a TGI (SF-295 CNS) of over 100 µM. For the same compound, the TGI (SK-MEL-28 melanoma) was over 100 µM, the TGI (RPMI-8226 leukemia) was over 100 µM and the TGI (HCT-15 colon) was over 100 µM. For the same compound, the TGI (OVCAR-4 ovarian) was over 100 µM, the TGI (HOP-62 NSCLC) was over 62.9 µM and the TGI (UACC-62 melanoma) was 15.1 µM. For the same compound, the TGI (OVCAR-5 ovarian) was over 100 µM, the TGI (MALME-3M melanoma) was over 81.2 µM and the TGI (NCI-H460 lung) was over 85.5 µM. For the same compound, the TGI (HCT-116 colon) was over 100 µM.
With Cn1cc(NC(=O)Nc2cc(C(=O)Nc3cc(C(=O)Nc4cc(S(=O)(=O)O)c5cc(S(=O)(=O)O)cc(S(=O)(=O)O)c5c4)n(C)c3)n(C)c2)cc1C(=O)Nc1cc(C(=O)Nc2cc(S(=O)(=O)O)c3cc(S(=O)(=O)O)cc(S(=O)(=O)O)c3c2)n(C)c1 the TGI (SR leukemia) was over 100 µM, the TGI (SN12C renal) was over 100 µM and the TGI (HS 578T breast) was over 100 µM. For the same compound, the TGI (A549 NSCLC) was over 100 µM, the TGI (U251 CNS) was over 100 µM and the TGI (NCI-H23 lung) was over 100 µM. The TGI (T-47D breast) was over 100 µM, the TGI (BT-549 breast) was over 100 µM and the TGI (HCC-2998 colon) was over 100 µM. It also gave a TGI (DU-145 prostate) of over 100 µM, a TGI (KM12 colon) of over 100 µM and a TGI (SK-MEL-5 melanoma) of over 100 µM. It also gave a TGI (NCI-H226 lung) of over 100 µM, a TGI (MDA-N) of over 100 µM and a TGI (NCI-H522 lung) of over 100 µM. For the same compound, the TGI (EKVX NSCLC) was over 100 µM, the TGI (SF-268 CNS) was over 100 µM and the TGI (PC-3 prostate) was over 100 µM. It also gave a TGI (COLO 205 colon) of over 100 µM, a TGI (SW-620 colon) of over 100 µM and a TGI (SK-OV-3 ovarian) of over 100 µM. For the same compound, the TGI (786-0 renal) was over 100 µM, the TGI (SNB-19 CNS) was over 100 µM and the TGI (TK-10 renal) was over 100 µM. It also gave a TGI (MOLT-4 leukemia) of over 100 µM, a TGI (CCRF-CEM leukemia) of over 100 µM and a TGI (OVCAR-8 ovarian) of over 100 µM. The TGI (HL-60(TB) leukemia) was over 100 µM, the TGI (UACC-257 melanoma) was over 100 µM and the TGI (MDA-MB-435) was over 100 µM. The TGI (NCI/ADR-RES ovarian) was over 100 µM, the TGI (UO-31 renal) was over 100 µM and the TGI (HOP-92 NSCLC) was over 100 µM. The TGI (OVCAR-3 ovarian) was over 100 µM, the TGI (M14 melanoma) was over 100 µM and the TGI (IGROV1 ovarian) was over 100 µM. For the same compound, the TGI (HT29 colon) was over 100 µM, the TGI (MCF7 breast) was over 100 µM and the TGI (RXF 393 renal) was over 100 µM. For the same compound, the TGI (SNB-75 CNS) was over 100 µM, the TGI (ACHN renal) was over 100 µM and the TGI (MDA-MB-231 breast) was over 100 µM. The TGI (SF-539 CNS) was over 100 µM, the TGI (K-562 leukemia) was over 100 µM and the TGI (SF-295 CNS) was over 100 µM. It also gave a TGI (SK-MEL-28 melanoma) of over 100 µM, a TGI (RPMI-8226 leukemia) of over 100 µM and a TGI (HCT-15 colon) of over 100 µM. For the same compound, the TGI (OVCAR-4 ovarian) was over 100 µM, the TGI (HOP-62 NSCLC) was over 100 µM and the TGI (UACC-62 melanoma) was over 100 µM. It also gave a TGI (OVCAR-5 ovarian) of over 100 µM, a TGI (MALME-3M melanoma) of over 100 µM and a TGI (NCI-H460 lung) of over 100 µM. For the same compound, the TGI (HCT-116 colon) was over 100 µM.
